Reference: publication PMC5669199, “CM352 Reduces Brain Damage and Improves Functional Recovery in a Rat Model of Intracerebral Hemorrhage” (Journal of the American Heart Association: Cardiovascular …, 2017)

Tests used:
[1] = tested on: mouse model of tail bleeding; parameters: method as in PMID 25686022; settings: CM352 0.01 mg/kg; cited from earlier work
[2] = tested on: tissue‐type plasminogen activator–induced fibrinolysis in mouse whole blood; test: Whole blood clot formation and lysis assay (ROTEM thromboelastometry), mouse blood; assay type: biochemical; settings: tPA‐induced fibrinolysis, read-out: effective concentration to delay lysis time by 50%
Procedure: Citrated blood samples from (n=4) rats (Sprague Dawley) and (n=16) mice ([…], Harlan Iberica) were assayed with a ROTEM analyzer (Pentapharm GmbH, Munich, Germany) as previously described.20 In a prewarmed cuvette and holder we pipetted 1 μL tissue-type plasminogen activator (150 000 U/mL), 20 μL Start-tem reagent (Pentapharm GmbH), 20 μL In-tem reagent (Pentapharm GmbH), 3 μL DMSO (SIGMA) or test compounds in DMSO, and 300 μL prewarmed citrated blood. The cup holder containing the sample mixture was placed immediately on the appropriate channel. Measurements were recorded for 60 minutes to allow clot formation and lysis, and results are expressed as effective concentration to delay lysis time by 50%.

cellular fibronectin = test: Plasma cellular fibronectin ELISA after ICH; assay type: in vivo, rat; settings: 1 mg/kg iv after ICH; data not shown
Procedure: Blood samples (0.5 mL) were drawn from the tail vein before surgery, immediately after surgery, and at 1 hour, 3 hours, 24 hours, and 14 days. Citrate or EDTA plasma was obtained by centrifugation, and samples were stored at −80°C. Enzyme‐linked immunosorbent assay was used to measure interleukin‐6 (IL‐6, ref. KRC0061, Life Technologies, Thermo Fisher Scientific, Waltham, MA), cellular fibronectin (ref. MBS007311, MyBioSource, San Diego, CA), and thrombin‐antithrombin complex (Enzygnost TAT, ref. OWMG15, Siemens Healthcare, Erlangen, Germany) in plasma, as biomarkers of inflammation, cellular damage, and hypercoagulability, respectively. The intra‐assay and interassay coefficients of variation for all molecular markers were <10%.

[3] = tested on: rat model of collagenase‐induced ICH; test: Bederson scale in ICH rat model; assay type: in vivo
Procedure: On the other hand, neurological deficit was evaluated with the Bederson scale,24 ranging from 0 (asymptomatic) to 8 (severe deficit), which included the following items: spontaneous movement, spontaneous rotation, spontaneous flexion of the contralateral forelimb, edge detection, turn after tail suspension, reflection of protection. Behavioral studies were performed at baseline (before surgery) and at 24 hours and 14 days after ICH during the darkness cycle. An experienced investigator, blind to treatment and neuroimaging data, analyzed the behavioral tests.

[4] = tested on: rat model of collagenase‐induced ICH; test: Cylinder test (laterality index) in ICH rat model; assay type: in vivo; settings: 24 hours and 14 days, all P<0.01 vs control
Procedure: Following STAIR criteria, animal models must show neurological and functional deficits in line with the produced lesion. The model of collagenase‐induced hemorrhage primarily damages the striatum, producing a small forelimb paresis contralateral to the lesion. Sensorimotor deficits after ischemic insult were assessed using the cylinder test, as previously described.23 This test evaluates limb asymmetry during the exploratory activity. Each animal was put in a cylinder with a 20‐cm‐diameter transparent base. A video camera was located under this transparent cylinder for recording the vertical exploratory movements of the animal with its anterior limbs for 2 to 10 minutes, depending on movement grade. For image recording and analysis, VirtulDub software was used. Analyzed behaviors were the numbers of times that the animal touched the cylinder wall and independent use of each limb in contact with the cylinder wall in each upward movement. The laterality index was calculated (the number of times that the animal touched the cylinder with the right leg during the ascendant movement by the number of times that the animals touched with each leg). […] An experienced investigator, blind to treatment and neuroimaging data, analyzed the behavioral tests.

[5] = Pharmacokinetics of CM352 in rats after intravenous administration; assay type: in vivo; settings: rat, 1 mg/kg intravenous
Procedure: CM352 solutions were prepared by dissolving the solid in saline. A drug dosage of 1 mg/kg was administered as a single intravenous injection in the femoral vein. Blood was collected into citrated tubes, and plasma was obtained by 2‐step centrifugation: first at 600 g for 10 minutes and then at 18 000 g for 2 minutes. Plasma samples were stored at −80°C until analysis. CM352 was measured in plasma samples using a Xevo‐TQ MS triple quadrupole mass spectrometer with an electrospray ionization source and an Acquity UPLC (Waters, Manchester, UK) as previously reported.20 Briefly, after chromatographic separation, the compound was detected using multiple reaction monitoring. Quantification was achieved by external calibration using matrix‐matched standards prepared by adding the appropriate volume of diluted solutions of the compound (in methanol/water 50:50, v:v) to aliquots of 50 μL blank plasma. Pharmacokinetic parameters were obtained by fitting the blood concentration‐time data to a bicompartmental model with the WinNonlin software (Pharsight, Mountain View, CA).

[6] = tested on: tissue‐type plasminogen activator–induced fibrinolysis in human blood; parameters: method as in PMID 25686022; settings: read-out: effective concentration to delay lysis time by 50%; cited from earlier work

CNC(=O)c1ccc(Oc2ccc(S(=O)(=O)[C@]3(C(=O)NO)CCC4(CCNCC4)C3)cc2)cc1 [CM352, 4‐[4‐[[(3R)‐3‐(Hydroxycarbamoyl)‐8‐azaspiro[4.5]decan‐3‐yl]sulfonyl]phenoxy]‐N‐methylbenzamide]
antihemorrhagic efficiency [1]: more potent agent
EC50 [2]: 200 nM
cellular fibronectin levels versus control (cellular fibronectin): no differences
neurological deficit (Bederson scale) ([3]; 1 mg/kg 3 hours after collagenase, 24 hours (P<0.01) and day 14 (P<0.05) vs control): better neurological function recovery
neurological deficit (Bederson scale) ([3]; 1 mg/kg iv 1 hour after collagenase, 24 hours, P<0.01 vs control): better neurological functional recovery
neurological deficit (Bederson scale) ([3]; 1 mg/kg iv 1 hour after collagenase, day 14, P<0.01 vs control): beneficial effect of CM352 also being very noticeable
sensorimotor recovery (laterality index) ([4]; 1 mg/kg 3 hours after collagenase): better sensorimotor recovery
sensorimotor recovery (laterality index) ([4]; 1 mg/kg iv 1 hour after collagenase): better sensorimotor recovery
Kp ([5]; brain, n=3, read-out: Brain/plasma ratio): 0.0193
half-life ([5]; plasma, n=3): 1.09 h
Cmax ([5]; plasma, n=3, read-out: Cmax (maximal plasma concentration)): 7.8 µM
clearance ([5]; plasma, n=3, read-out: Norm. Cl (normalized clearance) (converted)): 7 mL/min/kg
Vd ([5]; plasma, n=3, read-out: Norm. Vz (normalized volume of distribution)): 0.66 L/kg
maximal plasma concentration [5]: 7.8 µmol/L
time CM352 remains in blood above 10 nmol/L [5]: 8 h
EC50 [6]: 0.7 nM
